Measured values: patent publication US20260053171A1, “METHANOGEN INHIBITORS” (AGRIZERONZ LIMITED PARTNERSHIP, priority 2022, published 2026)

System: methane production in rumen fluid
Assay: Rumen in vitro (RIV) assay, methane production from rumen fluid incubations
Assay type: cell-based, cattle
Conditions: for inhibition at 2 µM / inhibition at 10 µM / inhibition at 50 µM: Bos taurus, read-out: RIV % methane reduction +/− SD; for inhibition (methane, RIV positive control): 30 μM
Description: The compounds of the present invention were initially screened for activity using an in vitro fully automated incubation system for the measurement of total gas production and gas composition (methane and hydrogen). The system used is described in detail in the paper by Muetzel et al. (2014; Animal Feed Science and Technology 196, 1-11). The system in this specification is referred to as the rumen in vitro system or RIV. The RIV system provides a relatively simple tool for determining the rate and production of methane and also whether the rate and production of methane is inhibited or reduced by a particular compound or feed. Rumen in vitro assays use rumen fluid from donor animals (typically either sheep or cattle) which is typically combined with a buffer and then incubated in sealed fermentation vessels at 39° C. for either 24 or 48 h. These assays systems have been well-characterised and used by the scientific community over the last two decades (Rymer et al. 2005). The system that has been used here to characterise the effects of inhibitors on methane production and gas production, and the formation of H2, was described by Muetzel et al. (2014). Rumen in vitro assay systems reflect what can occur in the rumen in vivo, but only short-term, due to their short incubation times (typically not exceeding 48 h) which is limited by its buffering capacity and the fact that it is a closed system. Stock solutions of inhibitors were re-suspended in dimethylformamide (DMF) at concentrations 1000-fold higher than the highest used for the assays. Any further dilutions were also prepared using DMF. The total amount of inhibitor solution added to the rumen fluid-buffer mixture (60 mL) was 60 μl. Incubations used 60 ml of medium containing 12 ml of filtered rumen fluid and 48 ml of buffer in serum bottles for 24-48 h, essentially as described by Muetzel et al. (2014). Two fistulated cattle were used as donor animals for rumen fluid and treatments were incubated in duplicate bottles. Sets of duplicate incubation vials that contained ryegrass (with rumen fluid-buffer mixture), and ryegrass with 30 μM bromoethanesulfonate (BES) were also incubated as negative and positive controls, respectively. One experiment consists of 2 replicates of an inhibitor at any one concentration run at the same time, and a run can contain up to 32 bottle, including positive (30 µM BES) and negative (no inhibitor added) controls. Compound 1, for example, was tested using the 60 mL rumen in vitro assay system at 50 μM, 10 μM, and 2 μM final concentrations and compared to a positive control with 30 µM BES.

Compound | inhibition at 10 µM | inhibition at 50 µM | other results
O=C(O)CCC(=O)N1N=C(c2ccc(-c3cc(F)cc(F)c3)cc2)CC1c1ccc2nccnc2c1 (stereo not shown) [Compound 66, 4-(3-(3′,5′-Difluoro-[1,1′-biphenyl]-4-yl)-5-(quinoxalin-6-yl)-4,5-dihydro-1H-pyrazol-1-yl)-4-oxobutanoic acid] | 85.4% |  | inhibition at 2 µM: 17.5%
O=C(O)CCC(=O)N1N=C(c2ccc(Cl)cc2Cl)CC1c1ccc2nccnc2c1 (stereo not shown) [Compound 10, 4-(3-(2,4-Dichlorophenyl)-5-(quinoxalin-6-yl)-4,5-dihydro-1H-pyrazol-1-yl)-4-oxobutanoic acid] |  | 64 ± 0.6% | 
Cc1ccc(C2=NN(C(=O)CCC(=O)O)C(c3ccc4nccnc4c3)C2)cc1 (stereo not shown) [Compound 2] |  | 13.9% | 
O=C(O)CCC(=O)N1N=C(c2ccc(-c3cccc(Cl)c3)cc2)CC1c1ccc2nccnc2c1 (stereo not shown) [Compound 18, 4-(3-(3′-Chloro-[1,1′-biphenyl]-4-yl)-5-(quinoxalin-6-yl)-4,5-dihydro-1H-pyrazol-1-yl)-4-oxobutanoic acid] | 83.6 ± 1.5% | 94.1 ± 0.1% | inhibition at 2 µM: < 5%
O=C(CCC(=O)N1N=C(c2ccc(Cl)cc2)CC1c1ccc2nccnc2c1)NS(=O)(=O)N1CCCC1 (stereo not shown) [Compound 128, 4-(3-(4-Chlorophenyl)-5-(quinoxalin-6-yl)-4,5-dihydro-1H-pyrazol-1-yl)-4-oxo-N-(pyrrolidin-1-ylsulfonyl) butanamide] | 53 ± 5.7% |  | 
O=C(O)CCC(=O)N1N=C(c2cccc(-c3cccc(OC(F)(F)F)c3)c2)CC1c1ccc2nccnc2c1 (stereo not shown) [Compound 98, 4-Oxo-4-(5-(quinoxalin-6-yl)-3-(3′-(trifluoromethoxy)-[1,1′-biphenyl]-3-yl)-4,5-dihydro-1H-pyrazol-1-yl)butanoic acid] | 15.6 ± 0.6% | 91 ± 2.7% | 
O=C(O)CCC(=O)N1N=C(c2ccc(-c3ccoc3)cc2)CC1c1ccc2nccnc2c1 (stereo not shown) [Compound 108, 4-(3-(4-(Furan-3-yl)phenyl)-5-(quinoxalin-6-yl)-4,5-dihydro-1H-pyrazol-1-yl)-4-oxobutanoic acid] | 6.3 ± 6.1% | 48.3 ± 2.8% | 
CC(C)(C)S(=O)(=O)NC(=O)CCC(=O)N1N=C(c2ccc(Cl)cc2)CC1c1ccc2nccnc2c1 (stereo not shown) [Compound 121, N-(tert-Butylsulfonyl)-4-(3-(4-chlorophenyl)-5-(quinoxalin-6-yl)-4,5-dihydro-1H-pyrazol-1-yl)-4-oxobutanamide] | 9.8 ± 2.2% |  | 
O=C(O)CCC(=O)N1N=C(c2ccc(-c3ccc(OC(F)(F)F)c(Cl)c3)cc2)CC1c1ccc2nccnc2c1 (stereo not shown) [Compound 102, 4-(3-(3′-Chloro-4′-(trifluoromethoxy)-[1,1′-biphenyl]-4-yl)-5-(quinoxalin-6-yl)-4,5-dihydro-1H-pyrazol-1-yl)-4-oxobutanoic acid] | 52.8 ± 2.5% |  | 
O=C(CCC(=O)N1N=C(c2ccc(Cl)cc2)CC1c1ccc2nccnc2c1)NS(=O)(=O)c1ccccc1 (stereo not shown) [Compound 70, 4-(3-(4-Chlorophenyl)-5-(quinoxalin-6-yl)-4,5-dihydro-1H-pyrazol-1-yl)-4-oxo-N-(phenylsulfonyl) butanamide] | 88.9 ± 1.5% |  | inhibition at 2 µM: 27.1 ± 13.1%
O=S(=O)(O)CCBr [BES, bromoethanesulfonate, reference compound] |  |  | inhibition (methane, RIV positive control) (at 10 hours): 70.5%; inhibition (methane, RIV positive control) (at 18 hours): 55.6%
O=C(O)CCC(=O)N1N=C(c2ccc3ccccc3c2)CC1c1ccc2nccnc2c1 (stereo not shown) [Compound 31, 4-(3-(Naphthalen-2-yl)-5-(quinoxalin-6-yl)-4,5-dihydro-1H-pyrazol-1-yl)-4-oxobutanoic acid] |  | 56.6 ± 6.9% | 
O=C(O)/C=C/C(=O)N1N=C(c2ccc(Cl)cc2)CC1c1ccc2nccnc2c1 (stereo not shown) [Compound 51, (E)-4-(3-(4-Chlorophenyl)-5-(quinoxalin-6-yl)-4,5-dihydro-1H-pyrazol-1-yl)-4-oxobut-2-enoic acid] |  | 57.1 ± 7.5% | 
COc1ccc(C2CC(c3ccc(Cl)cc3)=NN2C(=O)CCC(=O)O)cc1OC (stereo not shown) [Compound 43, 4-(3-(4-Chlorophenyl)-5-(3,4-dimethoxyphenyl)-4,5-dihydro-1H-pyrazol-1-yl)-4-oxobutanoic acid] |  | 39.7 ± 7.2% | 
O=C(O)CCC(=O)N1N=C(c2ccc3nccnc3c2)CC1c1ccc(Cl)cc1 (stereo not shown) [Compound 77, 4-(5-(4-Chlorophenyl)-3-(quinoxalin-6-yl)-4,5-dihydro-1H-pyrazol-1-yl)-4-oxobutanoic acid] |  | 77 ± 0.4% | 
CCOc1cc(C2CC(c3ccc(Cl)cc3)=NN2C(=O)CCC(=O)O)ccc1O (stereo not shown) [Compound 47, 4-(3-(4-Chlorophenyl)-5-(3-ethoxy-4-hydroxyphenyl)-4,5-dihydro-1H-pyrazol-1-yl)-4-oxobutanoic acid] |  | 68.3 ± 3.9% | 
O=C(O)CCC(=O)N1N=C(c2ccc(Cl)cc2)CC1c1ccc2nsnc2c1 (stereo not shown) [Compound 36, 4-(5-(Benzo[c][1,2,5]thiadiazol-5-yl)-3-(4-chlorophenyl)-4,5-dihydro-1H-pyrazol-1-yl)-4-oxobutanoic acid] | 33.4 ± 2.3% | 91.3 ± 0.2% | 
CN(C)S(=O)(=O)NC(=O)CCC(=O)N1N=C(c2ccc(-c3ccccc3)cc2)CC1c1ccc2nccnc2c1 (stereo not shown) [Compound 71, 4-(3-([1,1′-Biphenyl]-4-yl)-5-(quinoxalin-6-yl)-4,5-dihydro-1H-pyrazol-1-yl)-N—(N,N-dimethylsulfamoyl)-4-oxobutanamide] | 70.7% |  | inhibition at 2 µM: < 5%
CCC(C)Oc1ccc(-c2ccc(C3=NN(C(=O)CCC(=O)O)C(c4ccc5nccnc5c4)C3)cc2)cc1 (stereo not shown) [Compound 83, 4-(3-(4′-(sec-Butoxy)-[1,1′-biphenyl]-4-yl)-5-(quinoxalin-6-yl)-4,5-dihydro-1H-pyrazol-1-yl)-4-oxobutanoic acid] | 69.2 ± 1.8% |  | inhibition at 2 µM: < 5%
COCCOc1ccc(-c2ccc(C3=NN(C(=O)CCC(=O)O)C(c4ccc5nccnc5c4)C3)cc2)cc1 (stereo not shown) [Compound 91, 4-(3-(4′-(2-Methoxyethoxy)-[1,1′-biphenyl]-4-yl)-5-(quinoxalin-6-yl)-4,5-dihydro-1H-pyrazol-1-yl)-4-oxobutanoic acid] | 73.2 ± 2.8% |  | inhibition at 2 µM: < 5%
O=C(O)CCC(=O)N1N=C(c2ccc(-c3ccc(OC(F)(F)F)cc3F)cc2)CC1c1ccc2nccnc2c1 (stereo not shown) [Compound 101, 4-(3-(2′-Fluoro-4′-(trifluoromethoxy)-[1,1′-biphenyl]-4-yl)-5-(quinoxalin-6-yl)-4,5-dihydro-1H-pyrazol-1-yl)-4-oxobutanoic acid] | 65.7 ± 2.9% |  | 
CC(C)Sc1ccc(-c2ccc(C3=NN(C(=O)CCC(=O)O)C(c4ccc5nccnc5c4)C3)cc2)cc1 (stereo not shown) [Compound 93, 4-(3-(4′-(Isopropylthio)-[1,1′-biphenyl]-4-yl)-5-(quinoxalin-6-yl)-4,5-dihydro-1H-pyrazol-1-yl)-4-oxobutanoic acid] | 49.1 ± 10.8% |  | 
O=C(O)CCC(=O)N1N=C(c2ccc(Oc3ccccc3)cc2)CC1c1ccc2nccnc2c1 (stereo not shown) [Compound 7, 4-Oxo-4-(3-(4-phenoxyphenyl)-5-(quinoxalin-6-yl)-4,5-dihydro-1H-pyrazol-1-yl)butanoic acid] | 30.7 ± 3.6% | 66.4 ± 14.7% | 
COc1cccc(-c2ccc(C3=NN(C(=O)CCC(=O)O)C(c4ccc5nccnc5c4)C3)cc2)c1 (stereo not shown) [Compound 90, 4-(3-(3′-Methoxy-[1,1′-biphenyl]-4-yl)-5-(quinoxalin-6-yl)-4,5-dihydro-1H-pyrazol-1-yl)-4-oxobutanoic acid] | 6.9 ± 2.2% | 84.2% | 
O=C(O)CCC(=O)N1N=C(c2ccc(-c3ccccc3)cc2)CC1c1ccc2nonc2c1 (stereo not shown) [Compound 111, 4-(3-([1,1′-Biphenyl]-4-yl)-5-(benzo[c][1,2,5]oxadiazol-5-yl)-4,5-dihydro-1H-pyrazol-1-yl)-4-oxobutanoic acid] | 43.3 ± 9% |  | 
O=C(O)CCC(=O)N1N=C(c2ccc(Cl)cc2)CC1c1ccc2c(c1)OCO2 (stereo not shown) [Compound 37, 4-(5-(benzo[d][1,3]dioxol-5-yl)-3-(4-chlorophenyl)-4,5-dihydro-1H-pyrazol-1-yl)-4-oxobutanoic acid] |  | 15.6 ± 2% | 
O=C(O)CCC(=O)N1N=C(c2ccc(-c3ccccc3)c(F)c2)CC1c1ccc2nccnc2c1 (stereo not shown) [Compound 110, 4-(3-(2-Fluoro-[1,1′-biphenyl]-4-yl)-5-(quinoxalin-6-yl)-4,5-dihydro-1H-pyrazol-1-yl)-4-oxobutanoic acid] | 40.4 ± 7.6% |  | 
